Among the data in ChEMBL document CHEMBL1697723, “A predictive ligand-based Bayesian model for human drug-induced liver injury” (Drug Metab Dispos, 2010) are Hepatotoxicity values, retold here.

SMILES strings stand for the structures.

The first series has as its system Hepatotoxicity. Nature of the series: Human drug-induced liver injury (DILI) modelling dataset from Ekins et al.
Conditions: not given
Take `NS(=O)(=O)c1cc2c(cc1Cl)NCNS2(=O)=O` [HYDROCHLOROTHIAZIDE]: the Hepatotoxicity entry is “DILI positive (training set)”.
For `C[C@]12CCC(=O)C=C1CC[C@@H]1[C@@H]2[C@@H](O)C[C@@]2(C)[C@H]1CC[C@]2(O)C(=O)CO` [HYDROCORTISONE], the Hepatotoxicity entry is given as “DILI negative (training set)”.
Regarding `NC(=O)NO` [HYDROXYUREA], the Hepatotoxicity entry is listed as “DILI positive (training set)”.
Same read-out and setting: the same measure for `CC(C)Cc1ccc(CC(=O)O)cc1` [IBUFENAC]: “DILI positive (test set)”.
Regarding `CC(C)Cc1ccc(C(C)C(=O)O)cc1` (stereo unspecified) [IBUPROFEN], the Hepatotoxicity entry is listed as “DILI negative (test set)”.
For `CC(=O)[C@]1(O)Cc2c(O)c3c(c(O)c2[C@@H](O[C@H]2C[C@H](N)[C@H](O)[C@H](C)O2)C1)C(=O)c1ccccc1C3=O.Cl` [IDARUBICIN HYDROCHLORIDE], the Hepatotoxicity entry is reported as “DILI negative (training set)”.
Turning to `O=c1[nH]c(=O)n([C@H]2C[C@H](O)[C@@H](CO)O2)cc1I` [IDOXURIDINE], the Hepatotoxicity entry is “DILI positive (training set)”.
For the compound `O=P1(NCCCl)OCCCN1CCCl` (stereo unspecified) [IFOSFAMIDE], the Hepatotoxicity entry is on record as “DILI positive (test set)”.
The same measure, in the same setting: to `CN(C)CCCN1c2ccccc2CCc2ccccc21.Cl` [IMIPRAMINE HYDROCHLORIDE] belongs “DILI positive (training set)”; to `Nc1cc(-c2ccncc2)c[nH]c1=O` [INAMRINONE], “DILI positive (training set)”.
Turning to `CC1(c2ccccc2)Cc2cc(OCC(=O)O)c(Cl)c(Cl)c2C1=O` (stereo unspecified) [INDACRINONE], the Hepatotoxicity result is “DILI positive (test set)”.
Regarding `CC(C)(C)NC(=O)[C@@H]1CN(Cc2cccnc2)CCN1C[C@@H](O)C[C@@H](Cc1ccccc1)C(=O)N[C@H]1c2ccccc2C[C@H]1O.O=S(=O)(O)O` [INDINAVIR SULFATE], the Hepatotoxicity result was “DILI negative (test set)”.
In the case of `COc1ccc2c(c1)c(CC(=O)O)c(C)n2C(=O)c1ccc(Cl)cc1` [INDOMETHACIN], the Hepatotoxicity entry is reported as “DILI positive (training set)”.
The same measure, in the same setting: to `O[C@H]1[C@H](O)[C@@H](O)[C@H](O)[C@@H](O)[C@H]1O` [INOSITOL] belongs “DILI negative (test set)”; to `C[C@H](O)C(=O)Nc1c(I)c(C(=O)NC(CO)CO)c(I)c(C(=O)NC(CO)CO)c1I` [IOPAMIDOL], “DILI positive (test set)”.
As for `CC(C)NNC(=O)c1ccncc1` [IPRONIAZID], the Hepatotoxicity entry was “DILI positive (test set)”.
On the same count and under the same terms, the same measure for `CCCCC1=NC2(CCCC2)C(=O)N1Cc1ccc(-c2ccccc2-c2nnn[nH]2)cc1` [IRBESARTAN]: “DILI negative (test set)”.
Same read-out and setting: the same measure for `Cc1cc(C(=O)NNCc2ccccc2)no1` [ISOCARBOXAZID]: “DILI negative (test set)”.
For `NNC(=O)c1ccncc1` [ISONIAZID], the Hepatotoxicity result was “DILI positive (training set)”.
With `O=[N+]([O-])O[C@H]1CO[C@H]2[C@@H]1OC[C@H]2O[N+](=O)[O-]` [ISOSORBIDE DINITRATE], the Hepatotoxicity entry is reported as “DILI negative (test set)”.
Turning to `CC1=C(/C=C/C(C)=C/C=C/C(C)=C\C(=O)O)C(C)(C)CCC1` [ISOTRETINOIN], the Hepatotoxicity entry was “DILI positive (training set)”.
On the same count and under the same terms, the same measure for `Cc1cc(NC(=O)C2=C(O)c3ccccc3S(=O)(=O)N2C)no1` [ISOXICAM]: “DILI negative (test set)”.
In the case of `CC(COc1ccccc1)NC(C)C(O)c1ccc(O)cc1.Cl` (stereo unspecified) [ISOXSUPRINE HYDROCHLORIDE], the Hepatotoxicity result is on record as “DILI negative (training set)”.
With `CC(=O)N1CCN(c2ccc(OCC3COC(Cn4ccnc4)(c4ccc(Cl)cc4Cl)O3)cc2)CC1` (stereo unspecified) [KETOCONAZOLE], the Hepatotoxicity result is on record as “DILI positive (test set)”.
For the compound `CC(C(=O)O)c1cccc(C(=O)c2ccccc2)c1` (stereo unspecified) [KETOPROFEN], the Hepatotoxicity entry is on record as “DILI negative (test set)”.
For the compound `NC(CO)(CO)CO.O=C(c1ccccc1)c1ccc2n1CCC2C(=O)O` (stereo unspecified) [KETOROLAC TROMETHAMINE], the Hepatotoxicity result was “DILI positive (training set)”.
Regarding `CN1CCC(=C2c3ccccc3CC(=O)c3sccc32)CC1` [KETOTIFEN], the Hepatotoxicity entry is “DILI negative (training set)”.
On the same count and under the same terms, the same measure for `CC(CCc1ccccc1)NCC(O)c1ccc(O)c(C(N)=O)c1` (stereo unspecified) [LABETALOL]: “DILI positive (training set)”.
Same read-out and setting: to `Nc1ccn([C@@H]2CS[C@H](CO)O2)c(=O)n1` [LAMIVUDINE] belongs “DILI negative (training set)”.
Still for that read-out and setting: to `CS(=O)(=O)CCNCc1ccc(-c2ccc3ncnc(Nc4ccc(OCc5cccc(F)c5)c(Cl)c4)c3c2)o1` [LAPATINIB] belongs “DILI positive (test set)”; to `Cc1oncc1C(=O)Nc1ccc(C(F)(F)F)cc1` [LEFLUNOMIDE], “DILI positive (training set)”.
In the case of `Nc1nc(=O)c2c([nH]1)NCC(CNc1ccc(C(=O)N[C@@H](CCC(=O)[O-])C(=O)[O-])cc1)N2C=O.[Ca+2]` (stereo partly specified) [LEUCOVORIN CALCIUM], the Hepatotoxicity entry was “DILI negative (test set)”.
`N[C@@H](Cc1ccc(O)c(O)c1)C(=O)O` [LEVODOPA]: the Hepatotoxicity entry is reported as “DILI negative (training set)”.
Consider `C[C@H]1COc2c(N3CCN(C)CC3)c(F)cc3c(=O)c(C(=O)O)cn1c23.C[C@H]1COc2c(N3CCN(C)CC3)c(F)cc3c(=O)c(C(=O)O)cn1c23.O` [LEVOFLOXACIN], for which the Hepatotoxicity entry was “DILI negative (training set)”.
As to `N[C@@H](Cc1cc(I)c(Oc2ccc(O)c(I)c2)c(I)c1)C(=O)O` [LIOTHYRONINE], the Hepatotoxicity result is “DILI negative (test set)”.
For `NCCCC[C@H](N[C@@H](CCc1ccccc1)C(=O)O)C(=O)N1CCC[C@H]1C(=O)O` [LISINOPRIL ANHYDROUS], the Hepatotoxicity entry is “DILI positive (training set)”.
Turning to `C[C@H](CCC(=O)O)[C@H]1CC[C@H]2[C@@H]3CC[C@@H]4C[C@H](O)CC[C@]4(C)[C@H]3CC[C@]12C` [LITHOCHOLIC ACID], the Hepatotoxicity result was “DILI positive (training set)”.
Still for that read-out and setting: to `CN(C)C(=O)C(CCN1CCC(O)(c2ccc(Cl)cc2)CC1)(c1ccccc1)c1ccccc1.Cl` [LOPERAMIDE HYDROCHLORIDE] belongs “DILI negative (training set)”; to `N[C@@H](C(=O)N[C@@H]1C(=O)N2C(C(=O)O)=C(Cl)CC[C@H]12)c1ccccc1` [LORACARBEF ANHYDROUS], “DILI negative (test set)”.
Same read-out and setting: to `CCCCc1nc(Cl)c(CO)n1Cc1ccc(-c2ccccc2-c2nn[nH]n2)cc1` [LOSARTAN] belongs “DILI positive (test set)”; to `Cc1ccc(Nc2c(F)cccc2Cl)c(CC(=O)O)c1` [LUMIRACOXIB], “DILI positive (test set)”.
Same read-out and setting: to `O=C(O)/C=C\C(=O)O` [MALEIC ACID] belongs “DILI positive (training set)”; to `COC(=O)Nc1nc2ccc(C(=O)c3ccccc3)cc2[nH]1` [MEBENDAZOLE], “DILI positive (training set)”; to `Cc1ccc(Cl)c(Nc2ccccc2C(=O)[O-])c1Cl.O.[Na+]` [MECLOFENAMATE SODIUM], “DILI positive (training set)”.
With `CC(=O)O[C@]1(C(C)=O)CC[C@H]2[C@@H]3C[C@H](C)C4=CC(=O)CC[C@]4(C)[C@H]3CC[C@@]21C` [MEDROXYPROGESTERONE ACETATE], the Hepatotoxicity result is reported as “DILI negative (training set)”.
As for `COc1ccc2[nH]cc(CCNC(C)=O)c2c1` [MELATONIN], the Hepatotoxicity result is reported as “DILI negative (training set)”.
On to `Cc1cnc(NC(=O)C2=C(O)c3ccccc3S(=O)(=O)N2C)s1` [MELOXICAM], for which the Hepatotoxicity entry was “DILI negative (test set)”.
Take `CC12CC3CC(C)(C1)CC(N)(C3)C2` [MEMANTINE]: the Hepatotoxicity entry was “DILI negative (training set)”.
On to `CC1=CC(=O)c2ccccc2C1=O` [MENADIONE], for which the Hepatotoxicity entry was “DILI positive (test set)”.
In the case of `CCC1(c2ccccc2)C(=O)NC(=O)N(C)C1=O` (stereo unspecified) [MEPHOBARBITAL], the Hepatotoxicity result is listed as “DILI positive (test set)”.
`CCCC(C)(COC(N)=O)COC(N)=O` [MEPROBAMATE]: the Hepatotoxicity result is reported as “DILI positive (test set)”.
As to `C#C[C@]1(O)CC[C@H]2[C@@H]3CCc4cc(OC)ccc4[C@H]3CC[C@@]21C` [MESTRANOL], the Hepatotoxicity entry is “DILI positive (test set)”.
For `CC(=O)Nc1cccc(O)c1` [METACETAMOL], the Hepatotoxicity entry was “DILI negative (training set)”.
Consider `CC(C)NCC(O)c1cc(O)cc(O)c1.CC(C)NCC(O)c1cc(O)cc(O)c1.O=S(=O)(O)O` (stereo unspecified) [METAPROTERENOL SULFATE], for which the Hepatotoxicity result is “DILI positive (training set)”.
Regarding `C=C1c2cccc(O)c2C(=O)C2=C(O)[C@]3(O)C(=O)C(C(N)=O)=C(O)[C@@H](N(C)C)[C@@H]3[C@@H](O)[C@H]12.Cl` [METHACYCLINE HYDROCHLORIDE], the Hepatotoxicity entry was “DILI positive (training set)”.
Still for that read-out and setting: to `CN(Cc1cnc2nc(N)nc(N)c2n1)c1ccc(C(=O)N[C@@H](CCC(=O)O)C(=O)O)cc1` [METHOTREXATE] belongs “DILI positive (training set)”; to `COc1ccc(OC)c(C(O)C(C)N)c1.Cl` (stereo unspecified) [METHOXAMINE HYDROCHLORIDE], “DILI negative (training set)”; to `COCC(=O)O` [METHOXYACETIC ACID], “DILI positive (test set)”.
On to `C[C@](N)(Cc1ccc(O)c(O)c1)C(=O)O` [METHYLDOPA], for which the Hepatotoxicity result is “DILI positive (test set)”.
For `CC[C@@H](CO)NC(=O)[C@@H]1C=C2c3cccc4[nH]cc(c34)C[C@H]2N(C)C1.O=C(O)/C=C\C(=O)O` [METHYLERGONOVINE MALEATE], the Hepatotoxicity result is given as “DILI negative (training set)”.

Staying with this series, now noted: Liver.
Regarding `CC(C)NCC(O)c1ccc(O)c(O)c1.Cl` (stereo unspecified) [ISOPROTERENOL HYDROCHLORIDE], the Hepatotoxicity result is reported as “DILI negative (training set)”.
In the case of `CCN(CC)CC(=O)Nc1c(C)cccc1C` [LIDOCAINE], the Hepatotoxicity entry was “DILI negative (training set)”.
Still for that read-out and setting: the same measure for `CNCCCC12CCC(c3ccccc31)c1ccccc12` [MAPROTILINE]: “DILI negative (training set)”.
For `Cc1cccc(Nc2ccccc2C(=O)O)c1C` [MEFENAMIC ACID], the Hepatotoxicity result is listed as “DILI positive (training set)”.
Take `CN1CCCCC1CCN1c2ccccc2Sc2ccc([S+](C)[O-])cc21.O=S(=O)(O)c1ccccc1` (stereo unspecified) [MESORIDAZINE BESYLATE]: the Hepatotoxicity entry was “DILI positive (training set)”.
Consider `CN(C)C(=N)N=C(N)N` [METFORMIN], for which the Hepatotoxicity result is “DILI negative (test set)”.
